The text below walks through data of BindingDB's records for doi:10.7270/Q2319T8T (The Scripps Research Institute Molecular Screening Center, 2007).

The structures appear in SMILES notation. A value given as a limit tells only on which side of the number the result lay.

In the first assay the target is Steroidogenic factor 1 (Homo sapiens, UniProt Q13285). As to the kind of experiment: SF-1 inhibitor potency, dose response, cell-based, CHO-K1, Gal4-SF-1 LBD, luciferase luminescence (AID 600).
Chain of Steroidogenic factor 1 (Q13285 whole entry, the tested form may be a part): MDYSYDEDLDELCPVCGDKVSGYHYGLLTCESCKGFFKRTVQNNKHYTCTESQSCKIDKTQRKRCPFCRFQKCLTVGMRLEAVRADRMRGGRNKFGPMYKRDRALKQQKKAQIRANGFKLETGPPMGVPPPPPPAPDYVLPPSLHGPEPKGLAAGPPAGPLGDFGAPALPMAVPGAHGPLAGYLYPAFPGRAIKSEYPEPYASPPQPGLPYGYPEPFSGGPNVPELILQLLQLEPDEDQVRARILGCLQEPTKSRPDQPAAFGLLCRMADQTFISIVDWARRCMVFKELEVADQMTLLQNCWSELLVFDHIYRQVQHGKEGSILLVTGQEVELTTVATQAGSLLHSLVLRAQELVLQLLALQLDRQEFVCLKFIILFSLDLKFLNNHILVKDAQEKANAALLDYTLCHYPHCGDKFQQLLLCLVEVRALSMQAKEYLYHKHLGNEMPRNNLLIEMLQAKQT
Conditions: not given
Turning to `CCOC(=O)C(C)Oc1cccc2c(=O)n(CC(=O)Nc3ccc4c(c3)OCCO4)ccc12` (stereo not drawn), half-maximal inhibition (IC50) required 0.837 µM. On the same count and under the same terms, in the case of `CCC(NC(=O)Nc1nnc(C(F)(F)F)s1)(C(F)(F)F)C(F)(F)F` it was greater than 11 µM; in that of `O=S1(=O)C=C(Sc2nnc(-c3ccccc3)o2)c2ccccc21`, 3.9 µM; in that of `CCc1ccc(-c2nnn(CCC(=O)OC)n2)cc1`, 6.69 µM. On the same count and under the same terms, in the case of `Cn1ncnc2c(=O)n(C)c(=O)nc1-2` it was 0.75 µM. `O=C1c2ccccc2C(=O)C1c1ccc2ccccc2n1` displayed an IC50 of 6.72 µM.

`CCN(CC)c1ccc(-c2nn3c(-c4ccccc4OC)nnc3s2)cc1`: it took 5.03 µM to reach half-maximal inhibition (IC50).

For the compound `Cc1ccc2[nH]c3c(N4CCN(Cc5ccc6c(c5)OCO6)CC4)ncnc3c2c1`, the IC50 stood at 7.31 µM.

In the case of `Fc1ccc2[nH]c3c(N4CCN(c5ccccc5)CC4)ncnc3c2c1`, 1.06 µM corresponded to half-maximal inhibition (IC50). On the same count and under the same terms, as for `CC[C@H]1CN2CCc3cc(OC)c(OC)cc3[C@@H]2C[C@@H]1C[C@H]1NCCc2cc(OC)c(OC)cc21`, the figure is 0.202 µM. `[H][C@@]12C[N@@](CCc3c([nH]c4ccccc34)[C@@](C(=O)OC)(c3cc4c(cc3OC)N(C=O)[C@]3([H])[C@]45CC[N@@]4CC=C[C@@](CC)([C@@H](OC(C)=O)[C@]3(O)C(=O)OC)[C@]45[H])C1)C[C@](O)(CC)C2` displayed an IC50 of 3.56 µM. Compound `Clc1ccc(-c2nnc(NC3=NCCCCC3)o2)cc1` showed an IC50 greater than 3.67 µM. Consider `COc1cc2nc(S)n3nc(CCn4nc(C)cc4C)nc3c2cc1OC`, for which 5.04 µM corresponded to half-maximal inhibition (IC50).

As to `O=C(CC=Nc1cccc(F)c1)c1ccc2c(c1)OCO2`, the half-maximal inhibitory concentration (IC50) was found to be 4.65 µM. On the same count and under the same terms, as for `Nc1nsc2ccccc12` [1,2-benzothiazol-3-amine], the figure is 6.84 µM.

`Cc1ccc(C(C)C)c(OCCNc2nc3c(c(=O)n(C)c(=O)n3C)n2C)c1` [1,3,7-trimethyl-8-[2-(5-methyl-2-propan-2-yl-phenoxy)ethylamino]purine-2,6-dione]: the IC50 is greater than 99 µM.

As to `Cc1ccc(CNc2nc3ccccc3s2)s1` [1,3-benzothiazol-2-yl-[(5-methyl-2-thienyl)methyl]amine], the IC50 is greater than 11 µM.

For the compound `CC(NC(=O)Nc1nnc(C(F)(F)F)s1)(C(F)(F)F)C(F)(F)F` [1-(1,1,1,3,3,3-hexafluoro-2-methylpropan-2-yl)-3-[5-(trifluoromethyl)-1,3,4-thiadiazol-2-yl]urea], the 50% inhibitory concentration (IC50) worked out at 6.25 µM.

On to `O=C(CSc1nnc(COc2cccc3cccnc23)o1)N1CCc2ccccc21` [1-(2,3-Dihydro-indol-1-yl)-2-[5-(quinolin-8-yloxymethyl)-[1,3,4]oxadiazol-2-ylsulfanyl]-ethanone], for which the IC50 came to 4.4 µM. Take `CCOc1ccccc1C(=O)N1CCN(c2cccc(Cl)c2)CC1` [1-(3-chlorophenyl)-4-(2-ethoxybenzoyl)piperazine]: the IC50 is greater than 1.22 µM.

In turn, `CCCS(=O)(=O)c1nnnn1-c1cccc(OC)c1` [1-(3-methoxyphenyl)-5-(propylsulfonyl)-1H-tetrazole] returned a 50% inhibitory concentration (IC50) of 4.96 µM. The same measure, in the same setting: in the case of `Cc1ccc(-c2nsc3c(N4CCC(C(N)=O)CC4)ncnc23)cc1` [1-(3-p-Tolyl-isothiazolo[4,5-d]pyrimidin-7-yl)-piperidine-4-carboxylic acid amide] it was 0.221 µM; in that of `CC(C)NCC(O)Cn1c2c(c3ccccc31)CCc1c-2cnn1-c1ccccc1` (stereo not drawn) [1-(3-phenyl-4,5-dihydropyrazolo[4,3-a]carbazol-10-yl)-3-(propan-2-ylamino)-2-propanol], 5.85 µM; in that of `Clc1ccc(-n2ncc3c(N4CCCC4)ncnc32)cc1` [1-(4-chlorophenyl)-4-(1-pyrrolidinyl)pyrazolo[3,4-d]pyrimidine], 3.17 µM. On the same count and under the same terms, in the case of `CC1CCCN(c2ncnc3c2cnn3-c2ccc(Cl)cc2)C1` (stereo not drawn) [1-(4-chlorophenyl)-4-(3-methyl-1-piperidinyl)pyrazolo[3,4-d]pyrimidine] it was less than 0.00503 µM. Still for that read-out and setting: as for `Cc1cccc(NC(=O)Nc2ccc(C#N)cc2)n1` [1-(4-cyanophenyl)-3-(6-methyl-2-pyridinyl)urea], the figure is greater than 1.22 µM; as for `COc1ccc(O)c(C(=O)CC(=O)c2ccc(F)cc2)c1` [1-(4-fluorophenyl)-3-(2-hydroxy-5-methoxy-phenyl)propane-1,3-dione], greater than 11 µM. For the compound `COc1ccc(-n2ncc3c(N4CCCCC4)ncnc32)cc1` [1-(4-methoxyphenyl)-4-(1-piperidinyl)pyrazolo[3,4-d]pyrimidine], it took 1.77 µM to reach half-maximal inhibition (IC50). With `CCOC(=O)C1CCN(Cc2ccc(O)c3ncccc23)CC1` [1-(8-Hydroxy-quinolin-5-ylmethyl)-piperidine-4-carboxylic acid ethyl ester], the 50% inhibitory concentration (IC50) was found to be 9.85 µM. Same read-out and setting: as for `CCn1nc(-c2ccccc2)nc2c(=O)n(C)c(=O)nc1-2` [1-Ethyl-6-methyl-3-phenyl-1H-pyrimido[5,4-e][1,2,4]triazine-5,7-dione], the figure is 4.73 µM. On the same count and under the same terms, as for `COCCn1c(C)cc(C(=O)CSc2nnc(C)s2)c1C` [1-[1-(2-methoxyethyl)-2,5-dimethyl-1H-pyrrol-3-yl]-2-[(5-methyl-1,3,4-thiadiazol-2-yl)thio]ethanone], the figure is 5.45 µM; as for `CCOC(=O)C1CCN(c2ncnc3c2cnn3-c2ccc(Cl)cc2)CC1` [1-[1-(4-chlorophenyl)-4-pyrazolo[3,4-d]pyrimidinyl]-4-piperidinecarboxylic acid ethyl ester], 3.42 µM; as for `Cc1csc(SCC(=O)c2cc(C)n(Cc3cccs3)c2C)n1` [1-[2,5-dimethyl-1-(2-thenyl)pyrrol-3-yl]-2-[(4-methylthiazol-2-yl)thio]ethanone], greater than 3.67 µM. The same measure, in the same setting: as for `Cc1cc(-n2c(C)cc(C(=O)CSc3ncnc4ccccc34)c2C)no1` [1-[2,5-dimethyl-1-(5-methyl-1,2-oxazol-3-yl)pyrrol-3-yl]-2-quinazolin-4-ylsulfanyl-ethanone], the figure is 9.13 µM; as for `CC(=O)c1ccc(N2CCN(c3ccc(C(F)(F)F)cn3)CC2)cc1` [1-[4-[4-[5-(trifluoromethyl)-2-pyridinyl]-1-piperazinyl]phenyl]ethanone], greater than 33 µM.

The same assay, now with this note: inactive by the depositor's call.
On to `CC(C)OCCCNc1ncnc2c1[nH]c1ccc(F)cc12`, for which it took 20.7 µM to reach half-maximal inhibition (IC50). `CN1/C(=C/C(=O)c2nc(S(C)(=O)=O)ncc2Cl)C(C)(C)c2ccccc21` returned a half-inhibitory concentration (IC50) of 15.5 µM. For the compound `CCCCOC(=O)c1[nH]c2c(c1C)C(=O)CC(c1cc(OC)c(OC)c(OC)c1)C2` (stereo not drawn), the IC50 was found to be 16.9 µM. The IC50 values of the last two compounds are within 1.5-fold of each other. Same read-out and setting: in the case of `COc1cc2c(C#N)c(N3CCN(c4ccccc4OC)CC3)nc(N)c2c(N)n1` [1,8-diamino-6-methoxy-3-(4-(2-methoxyphenyl)piperazin-1-yl)-2,7-naphthyridine-4-carbonitrile] it was 29.7 µM. On to `Cc1ccccc1S(=O)(=O)Cc1ccc(C(=O)N2CCN(c3cccc(C)c3C)CC2)o1` [1-(2,3-dimethylphenyl)-4-(5-{[(2-methylphenyl)sulfonyl]methyl}-2-furoyl)piperazine], for which the IC50 amounted to 13.4 µM. Still for that read-out and setting: as for `Cc1occc1C(=O)N1CCN(c2ccc(Cl)c(Cl)c2)CC1` [1-(3,4-dichlorophenyl)-4-(2-methyl-3-furoyl)piperazine], the figure is 29.7 µM; as for `COc1cc(CSc2nnnn2-c2ccc(C)cc2)cc(OC)c1OC` [1-(4-methylphenyl)-5-[(3,4,5-trimethoxybenzyl)thio]-1H-tetrazole], 16.9 µM. `COc1ccc(NC(=O)NCCCN2CCN(c3cc(C)ccc3C)CC2)cc1` [1-[3-[4-(2,5-dimethylphenyl)-1-piperazinyl]propyl]-3-(4-methoxyphenyl)urea] displayed a concentration for half-maximal inhibition (IC50) of 24.3 µM.

The term IC50 denotes the concentration that gives 50% inhibition. The low end stands for greater potency, the high end for weaker potency.
